# Data: patent US10920265B2, “Compounds and methods for detection of enzymes that remove methyl succinyl groups from epsilon-amino lysine moieties” (Enzo Life Sciences, Inc., priority 2011, dated 2021)
# *: point of attachment. AMC = Cc1cc(=O)oc2cc(N*)ccc12
# Key:
# [1] = system: HeLa Nuclear Extract; experiment: Activity of HeLa nuclear extract with fluorogenic lysyl substrates; format: biochemical, human; conditions: 50 μM substrate
# Method: (§1) The Ac-Lys(Succ.)-AMC substrate was tested for activity with recombinant preparations of human HDACs 1-11, SIRTs 1-4, 6 and 7, a complex of HDAC3 with a fragment of the activating protein NCOR1 and with HeLa nuclear extract, a rich source of active HDACs in their native multiprotein complexes.
# (§2) Enzyme and extract catalog products obtained from ENZO Life Sciences included: HDAC1 (Cat. # BML-SE456), HDAC2 (Cat. # BML-SE500), HDAC3 (Cat. # BML-SE507), HDAC3/NCOR1 Complex (Cat. # BML-SE515), HDAC6 (Cat. # BML-SE508), HDAC8 (Cat. # BML-SE145), HDAC10 (Cat. # BML-SE559), HDAC11 (Cat. # BML-SE560), SIRT1 (Cat. # BML-SE239), SIRT2 (Cat. # BML-SE251), SIRT3 (Cat. # BML-SE270), SIRT5 (Cat. # BML-SE555), HeLa Nuclear Extract (Cat. # BML-KI140), Trypsin (“Fluor de Lys Developer”, 80 mg/ml bovine trypsin in 1 mM HCl, Cat. # BML-KI105 or “Fluor de Lys Developer II”, 80 mg/ml bovine trypsin in 1 mM HCl, Cat. # BML-KI176). […] Enzymes obtained from BPS Bioscience, San Diego, Calif. included: human recombinants SIRT4 (Cat. #50015), SIRT6 (Cat. #50017), SIRT7 (Cat. #50018). HeLa whole cell extract was obtained from HeLa S3 cells (American Type Culture Collection) grown in a medium of MEM/10% fetal bovine serum (FBS) as follows: 1) 9×10^6 cells were suspended by trypsinization, followed by a phosphate buffered saline (PBS) rinse and addition of MEM/10% FBS (1.5 mL) to eliminate trypsin before transfer to a 15 mL conical tube; 2) cells were sedimented by a low speed centrifugation, gently resuspended in PBS and sedimented again and supernatant removed; 3) lysis was induced by resuspension in 0.8 mL 50 mM Tris/HCl, pH 8.0 with the non-denaturing detergent NP-40 (0.5%), placement on ice and brief vortexing every 5 min. for 30 min.; 4) 100 μl of a concentrated salt solution in the same buffer was added in order to bring the final buffer composition to 50 mM Tris/C1, pH 8.0, 137 mM NaCl, 2.7 mM KCl, 1 mM MgCl2, 0.5% NP-40; 5) particulate matter was cleared by centrifugation and the cleared lysate supernatant transferred to a 1.5 mL Eppendorf tube and stored on ice until use in activity assays.
# (§3) Assays were performed at 37° C., according to the manufacturer's instructions for the “SIRT1 Fluorometric Drug Discovery Kit” from Enzo Life Sciences (ELS) (Cat. # BML-AK555), with exceptions described as follows. Where indicated in figures and text, SIRT1 enzyme was replaced with another enzyme or extract and the “Fluor de Lys-SIRT1 Substrate” (Ac-Arg-His-Lys-Lys(Ac)-AMC; ELS Cat. # BML-KI-177) was replaced with another acetylated, succinylated or trifluoroacetylated substrate.
# [2] = molecular target: T1, SIRT7 (Homo sapiens, UniProt Q9NRC8); experiment: Sirtuin activity with fluorogenic lysyl substrates; format: biochemical; conditions: 50 μM substrate, 500 μM NAD^+
# T1 construct: purchased BPS Bioscience 50018
# T1 sequence (Q9NRC8 1-400): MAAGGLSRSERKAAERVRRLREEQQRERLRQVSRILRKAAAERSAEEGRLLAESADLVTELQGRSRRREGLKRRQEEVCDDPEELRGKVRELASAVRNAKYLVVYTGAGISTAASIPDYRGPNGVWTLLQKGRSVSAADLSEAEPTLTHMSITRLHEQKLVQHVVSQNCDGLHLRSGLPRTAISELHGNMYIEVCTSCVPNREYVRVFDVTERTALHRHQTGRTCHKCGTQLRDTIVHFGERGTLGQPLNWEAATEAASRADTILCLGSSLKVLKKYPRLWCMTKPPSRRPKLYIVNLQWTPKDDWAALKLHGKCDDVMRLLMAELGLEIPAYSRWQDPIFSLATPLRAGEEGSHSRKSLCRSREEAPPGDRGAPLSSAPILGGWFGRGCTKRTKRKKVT
# Method: as §1, §2, §3
# [3] = molecular target: T2, SIRT3 (Homo sapiens, UniProt Q9NTG7); experiment: Sirtuin activity with fluorogenic lysyl substrates; format: biochemical; conditions: 50 μM substrate, 500 μM NAD^+
# T2 construct: purchased ENZO Life Sciences BML-SE270
# T2 sequence (Q9NTG7 1-399): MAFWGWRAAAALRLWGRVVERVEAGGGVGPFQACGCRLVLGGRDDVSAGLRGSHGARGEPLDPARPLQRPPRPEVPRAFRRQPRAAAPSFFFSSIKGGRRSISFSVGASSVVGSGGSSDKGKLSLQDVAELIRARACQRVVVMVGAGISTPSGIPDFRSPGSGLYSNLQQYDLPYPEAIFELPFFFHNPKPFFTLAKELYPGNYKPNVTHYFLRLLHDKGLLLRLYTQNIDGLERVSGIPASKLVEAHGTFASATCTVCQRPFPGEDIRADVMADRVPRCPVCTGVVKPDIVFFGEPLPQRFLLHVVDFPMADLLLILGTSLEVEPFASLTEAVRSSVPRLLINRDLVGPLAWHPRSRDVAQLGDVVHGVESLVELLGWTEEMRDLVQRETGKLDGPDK
# Method: as §1, §2, §3
# [4] = molecular target: T3, SIRT6 (Homo sapiens, UniProt Q8N6T7); experiment: Sirtuin activity with fluorogenic lysyl substrates; format: biochemical; conditions: 50 μM substrate, 500 μM NAD^+
# T3 construct: purchased BPS Bioscience 50017
# T3 sequence (Q8N6T7 whole entry): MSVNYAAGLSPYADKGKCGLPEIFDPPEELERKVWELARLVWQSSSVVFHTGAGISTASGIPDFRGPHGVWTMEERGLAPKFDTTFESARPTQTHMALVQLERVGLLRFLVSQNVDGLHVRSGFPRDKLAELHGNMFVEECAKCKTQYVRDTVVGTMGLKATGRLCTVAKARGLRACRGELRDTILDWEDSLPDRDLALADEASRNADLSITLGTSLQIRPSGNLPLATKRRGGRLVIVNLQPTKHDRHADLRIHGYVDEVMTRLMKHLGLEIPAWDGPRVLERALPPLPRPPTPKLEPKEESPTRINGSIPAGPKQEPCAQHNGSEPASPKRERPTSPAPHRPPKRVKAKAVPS
# Method: as §1, §2, §3
Activity (pmol/min/μg) [2],Activity [3],Activity [4],Activity (pmol/min/μg) [4],Activity (pmol/min/μg) [3],Compound,Activity [1]
Undetectable,0.012 pmol/min/µg,0.074 pmol/min/µg,–,–,"CCCCCCCCCCCCCC(=O)NCCCC[C@H](NC(C)=O)C(=O)Nc1ccc2c(C)cc(=O)oc2c1 [Compound 4, N—(N^α-acetyl-L-Lysine(N^ε-myristoyl))-AMC]",0.819 pmol/min/µg
Undetectable,0.002 pmol/min/µg,0.006 pmol/min/µg,–,–,"COC(=O)CCC(=O)NCCCC[C@H](NC(C)=O)C(=O)Nc1ccc2c(C)cc(=O)oc2c1 [Compound 5, N—(N^α-acetyl-L-Lysine(N^ε-methyl succinyl))-AMC]",1.764 pmol/min/µg

# Second part, the compound before the results:
Compound,Activity (pmol/min/μg) [2],Activity [3],Activity [4],Activity (pmol/min/μg) [4],Activity (pmol/min/μg) [3],Activity [1]
"CC(=O)NCCCCC(NC(C)=O)C(=O)Nc1ccc2c(C)cc(=O)oc2c1 (stereo not shown) [Ac-Lys(Ac.)-AMC, Ac-Lys(ε-acetyl)-AMC, reference compound]",Undetectable,0.125 pmol/min/µg,–,–,–,31 pmol/min/µg
"Ac-Arg-His-Lys-Lys(ε-acetyl)-AMC (Ac-RHKK(Ac)-{AMC}; SMILES CC(=O)NCCCC[C@H](NC(=O)[C@H](CCCCN)NC(=O)[C@H](Cc1c[nH]cn1)NC(=O)[C@H](CCCNC(=N)N)NC(C)=O)C(=O)Nc1ccc2c(C)cc(=O)oc2c1) [Ac-RHKK(Ac)-AMC, p53 peptide fluorogenic deacetylase substrate, Cat. # BML-KI177, reference compound]",–,–,–,Ac-RHKK(Ac)-AMC/0.052 pmol/min/μg,–,–
"CC(=O)N[C@@H](CCCCNC(=O)CCC(=O)O)C(=O)Nc1ccc2c(C)cc(=O)oc2c1 [Compound 1, N—(N^α-acetyl-L-Lysine(N^ε-succinyl))-AMC]",Undetectable,–,–,Undetectable,Undetectable,0.012 pmol/min/µg
